Molecules are shown by their SMILES.

Common to all, as to type: biochemical
One assay addresses PKR R510Q (Homo sapiens, UniProt P30613, R510Q). The assay can be described thus: PKR R510Q Single Point Percent Activation Assay. As to conditions: read-out: Act. % 510Q. Here is the method: PKR R510Q Single Point Percent Activation Assay
(§1) A compound described herein was diluted with DMSO and tested at 1 μM concentration. The enzyme was diluted in 1× Buffer: (100 mM KCl, 50 mM Tris 7.5, 5 mM MgCl2, 1 mM DTT, 0.03% BSA). 2 μL of compound solution was first added into wells, and then 180 μL of enzyme solution was added. Assays were assembled except for ADP, and plates were stored for 60 minutes at RT. 20 μL ADP was added to start the assay and assay output was evaluated using OD340 at SpectraMax. The assay was run at room temperature.
Final concentration: PKR R510Q (40 ng/well), Tris pH 7.5 (50 mM), KCl (100 mM), MgCl2 (5 mM), ADP (0.2 mM), PEP (0.11 mM), NADH (180 μM), LDH (0.5 units, Sigma 59023), DTT (1 mM) and BSA (0.03%).

The target in another assay is PKR R532W (Homo sapiens, UniProt P30613, R532W). The assay can be described thus: PKR R532W Single Point Percent Activation Assay. The settings on record: read-out: Act, % 532W. Here is the method: PKR R532W Single Point Percent Activation Assay
Chain of PKR R532W (P30613 whole entry R532W): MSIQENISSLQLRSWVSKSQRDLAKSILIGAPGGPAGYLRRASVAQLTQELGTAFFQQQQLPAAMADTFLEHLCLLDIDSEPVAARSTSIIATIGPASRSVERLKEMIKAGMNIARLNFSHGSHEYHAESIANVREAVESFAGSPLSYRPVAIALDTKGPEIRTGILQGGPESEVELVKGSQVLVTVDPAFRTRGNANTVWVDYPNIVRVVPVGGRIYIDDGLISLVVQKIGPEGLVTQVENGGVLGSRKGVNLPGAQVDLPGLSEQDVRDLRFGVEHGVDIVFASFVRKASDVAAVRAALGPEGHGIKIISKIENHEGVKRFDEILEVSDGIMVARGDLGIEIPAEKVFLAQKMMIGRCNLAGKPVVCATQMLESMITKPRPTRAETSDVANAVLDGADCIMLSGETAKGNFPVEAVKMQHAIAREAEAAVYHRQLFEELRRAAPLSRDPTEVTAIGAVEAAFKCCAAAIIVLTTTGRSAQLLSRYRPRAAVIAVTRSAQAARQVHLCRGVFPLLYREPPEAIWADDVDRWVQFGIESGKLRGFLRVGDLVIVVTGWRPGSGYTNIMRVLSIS
as §1
Final concentration: PKR R532W (100 ng/well), Tris pH 7.5 (50 mM), KCl (100 mM), MgCl2 (5 mM), ADP (0.36 mM), PEP (0.1 mM), NADH (180 μM), LDH (0.5 units, Sigma 59023), DTT (1 mM) and BSA (0.03%).

The target of another assay is PKR T384W (Homo sapiens, UniProt P30613, T384W). The assay can be described thus: PKR T384W Single Point Percent Activation Assay. As to conditions: read-out: Act. % 384W. Here is the method:
PKR T384W Single Point Percent Activation Assay
A compound described herein was diluted with DMSO and tested at 1 μM concentration. The enzyme was diluted in 1× Buffer: (100 mM KCl, 50 mM Tris 7.5, 5 mM MgCl2, 1 mM DTT, 0.03% BSA). 2 μL of compound solution was first added into wells, and then 180 μL enzyme solution was added. Assays were assembled except for ADP, and plates were stored for 60 minutes at RT. 20 μL ADP was added to start the assay and assay output was evaluated using OD340 at SpectraMax. The assay was run at room temperature.
Final concentration: PKR T384W soluble (300 ng/well), Tris pH 7.5 (50 mM), KCl (100 mM), MgCl2 (5 mM), ADP (0.08 mM), PEP (0.23 mM), NADH (180 μM), LDH (0.5 units, Sigma 59023), DTT (1 mM) and BSA (0.03%).

Another assay has as its target PKR wt (Homo sapiens, UniProt P30613). Description: PKR WT Single Point Percent Activation Assay. Here is the method:
PKR WT Single Point Percent Activation Assay
as §1
Final concentration: PKR wt (100 ng/well), Tris pH 7.5 (50 mM), KCl (100 mM), MgCl2 (5 mM), ADP (0.48 mM), PEP (0.15 mM), NADH (180 μM), LDH (0.5 units, Sigma 59023), DTT (1 mM) and BSA (0.03%).

Chain of PKR wt (P30613 whole entry): as the sequence (P30613 whole entry R532W) above, with W532R counted along it
Chain of PKR R510Q (P30613 whole entry R510Q): as the sequence (P30613 whole entry R532W) above, with R510Q, W532R counted along it
Chain of PKR T384W (P30613 whole entry T384W): as the sequence (P30613 whole entry R532W) above, with T384W, W532R counted along it

For `CC1CN(CC2CCCCC2)CC(C)N1C(=O)c1ccc(NS(=O)(=O)c2cccc3cccnc23)cc1` (centres unmarked), the activation at 1 µM on PKR R510Q, at PKR R532W, on PKR T384W and on PKR wt was 101 to 500% in each case.
As for `C[C@@H]1CN(Cc2cc(F)cc(F)c2)CCN1C(=O)c1ccc(NS(=O)(=O)c2cccc3cccnc23)cc1`, the activation at 1 µM at PKR R510Q, at PKR R532W, on PKR T384W and at PKR wt was 1 to 100% throughout.
For the compound `CC(c1ccc(F)cc1F)N1CCN(C(=O)c2ccc(NS(=O)(=O)c3cccc4cccnc34)cc2)[C@@H](C)C1` (some centres unmarked), the activation at 1 µM fell in the range of 1 to 100% at PKR R510Q, 101 to 500% on PKR R532W, 101 to 500% on PKR T384W and 101 to 500% on PKR wt.
`C[C@@H]1CN(C(=O)c2ccc(NS(=O)(=O)c3cccc4cccnc34)cc2)CCN1Cc1ccccc1`: the activation at 1 µM on PKR R510Q, on PKR R532W, at PKR T384W and on PKR wt was 101 to 500% in each case.
Turning to `C[C@@H]1CN(CC2CCCO2)CCN1C(=O)c1ccc(NS(=O)(=O)c2cccc3cccnc23)cc1` (some centres unmarked), the activation at 1 µM at PKR R510Q was in the range of 101 to 500%; at PKR R532W, 101 to 500%; on PKR T384W it was 1 to 100%; on PKR wt, 101 to 500%.
Regarding `O=C(c1ccc(NS(=O)(=O)c2cccc3cccnc23)cc1)N1CC2CCC(C1)N2Cc1cc(F)cc(F)c1`, the activation at 1 µM is 101 to 500% on PKR R510Q, 1 to 100% at PKR R532W, 101 to 500% at PKR T384W and 101 to 500% on PKR wt.
Take `CC1CN(Cc2cc(F)c(F)cc2F)CC(C)N1C(=O)c1ccc(NS(=O)(=O)c2cccc3cccnc23)cc1` (centres unmarked): the activation at 1 µM fell in the range of 101 to 500% on PKR R510Q, 1 to 100% at PKR R532W, 1 to 100% at PKR T384W and 101 to 500% on PKR wt.
For `CC1CN(CC2CC2)CC(C)N1C(=O)c1ccc(NS(=O)(=O)c2cccc3cccnc23)cc1` (centres unmarked), the activation at 1 µM at PKR R510Q fell in the range of 1 to 100%; on PKR R532W, 101 to 500%; at PKR T384W it was 101 to 500%; on PKR wt, 101 to 500%.
For the compound `CC(c1c(F)ccc(F)c1F)N1CCN(C(=O)c2ccc(NS(=O)(=O)c3cccc4cccnc34)cc2)[C@@H](C)C1` (some centres unmarked), the activation at 1 µM lay within 1 to 100% on PKR R510Q, 101 to 500% at PKR R532W, 101 to 500% at PKR T384W and 1 to 100% on PKR wt.
On to `CC(C)OC(=O)N1CCN(C(=O)c2ccc(NS(=O)(=O)c3cccc4cccnc34)cc2)c2ccccc21`, for which the activation at 1 µM at PKR R510Q, on PKR R532W, at PKR T384W and at PKR wt was 1 to 100% each time.
`C[C@H]1CN(CC2CC2)CCN1C(=O)c1ccc(NS(=O)(=O)c2cccc3cccnc23)cc1Cl`: the activation at 1 µM at PKR R510Q, at PKR R532W, at PKR T384W and on PKR wt was 1 to 100% throughout.
Turning to `CC[C@H]1CN(Cc2cc(F)cc(F)c2)CCN1C(=O)c1ccc(NS(=O)(=O)c2cccc3cccnc23)cc1`, the activation at 1 µM on PKR R510Q, at PKR R532W, on PKR T384W and at PKR wt was 101 to 500% throughout.
On to `O=C(c1ccc(NS(=O)(=O)c2cccc3cccnc23)cc1)N1CCN(CC2CC2)c2ccccc21`, for which the activation at 1 µM was 1 to 100% at PKR R510Q, 101 to 500% at PKR R532W, 101 to 500% at PKR T384W and 101 to 500% at PKR wt.
For `CC1CN(Cc2c(F)cc(F)cc2F)CC(C)N1C(=O)c1ccc(NS(=O)(=O)c2cccc3cccnc23)cc1` (centres unmarked), the activation at 1 µM at PKR R510Q fell in the range of 101 to 500%; at PKR R532W it was 101 to 500%; on PKR T384W, 1 to 100%; on PKR wt, 101 to 500%.
As for `C[C@@H]1CN(Cc2ccc(F)c(F)c2F)CCN1C(=O)c1ccc(NS(=O)(=O)c2cccc3cccnc23)cc1`, the activation at 1 µM at PKR R510Q lay within 101 to 500%; at PKR R532W it was 1 to 100%; at PKR T384W, 101 to 500%; at PKR wt, 1 to 100%.
`C[C@H]1CN(Cc2c(F)ccc(F)c2F)CCN1C(=O)c1ccc(NS(=O)(=O)c2cccc3cccnc23)cc1`: the activation at 1 µM at PKR R510Q is 1 to 100%; at PKR R532W, 1 to 100%; at PKR T384W, 101 to 500%; on PKR wt, 101 to 500%.
Turning to `CC(c1ccc(F)cc1)N1CCN(C(=O)c2ccc(NS(=O)(=O)c3cccc4cccnc34)cc2)[C@@H](C)C1` (some centres unmarked), the activation at 1 µM at PKR R510Q, at PKR R532W, at PKR T384W and on PKR wt was 101 to 500% each time.
`C[C@H]1CN(Cc2c(F)cc(F)cc2F)CCN1C(=O)c1ccc(NS(=O)(=O)c2cccc3cccnc23)cc1Cl`: the activation at 1 µM on PKR R510Q lay within 101 to 500%; at PKR R532W, 1 to 100%; at PKR T384W it was 101 to 500%; at PKR wt, 101 to 500%.
Regarding `C[C@H]1CN(CC2CCCCO2)CCN1C(=O)c1ccc(NS(=O)(=O)c2cccc3cccnc23)cc1` (some centres unmarked), the activation at 1 µM on PKR R510Q, at PKR R532W, on PKR T384W and on PKR wt was 1 to 100% in each case.
For the compound `O=C(c1ccc(NS(=O)(=O)c2cccc3cccnc23)cc1)N1CCN(Cc2ccc(F)cc2)C[C@@H]1c1ccccc1`, the activation at 1 µM at PKR R510Q, at PKR R532W, on PKR T384W and on PKR wt was 1 to 100% in each case.
Consider `CC(c1cc(F)c(F)c(F)c1)N1CCN(C(=O)c2ccc(NS(=O)(=O)c3cccc4cccnc34)cc2)[C@H](C)C1` (some centres unmarked), for which the activation at 1 µM at PKR R510Q lay in the range of 101 to 500%; at PKR R532W, 1 to 100%; at PKR T384W, 101 to 500%; on PKR wt, 1 to 100%.
As for `C[C@@H]1CN(C(=O)c2ccccn2)C[C@H](C)N1C(=O)c1ccc(NS(=O)(=O)c2cccc3cccnc23)cc1`, the activation at 1 µM on PKR R510Q was 1 to 100%; at PKR R532W, 1 to 100%; at PKR T384W it was 1 to 100%; at PKR wt, 101 to 500%.
For `CC(c1ccc(Cl)c(F)c1)N1CCN(C(=O)c2ccc(NS(=O)(=O)c3cccc4cccnc34)cc2)[C@@H](C)C1` (some centres unmarked), the activation at 1 µM at PKR R510Q lay in the range of 101 to 500%; at PKR R532W it was 1 to 100%; on PKR T384W, 1 to 100%; at PKR wt, 1 to 100%.
For the compound `O=C(c1ccc(NS(=O)(=O)c2cccc3cccnc23)cc1)N1C2CCC1CN(Cc1ccccc1)C2`, the activation at 1 µM at PKR R510Q, at PKR R532W, on PKR T384W and on PKR wt was 101 to 500% throughout.
Take `CC[C@H]1CN(Cc2ccc(F)cc2)CCN1C(=O)c1ccc(NS(=O)(=O)c2cccc3cccnc23)cc1`: the activation at 1 µM fell in the range of 1 to 100% on PKR R510Q, 101 to 500% at PKR R532W, 101 to 500% at PKR T384W and 101 to 500% at PKR wt.
As to `C[C@H]1CN(C(=O)OCC2CC2)CCN1C(=O)c1ccc(NS(=O)(=O)c2cccc3cccnc23)cc1`, the activation at 1 µM at PKR R510Q is 1 to 100%; on PKR R532W, 101 to 500%; at PKR T384W, 101 to 500%; at PKR wt it was 101 to 500%.
On to `C[C@@H]1CN(Cc2cc(F)cc(F)c2F)CCN1C(=O)c1ccc(NS(=O)(=O)c2cccc3cccnc23)cc1`, for which the activation at 1 µM on PKR R510Q was in the range of 1 to 100%; on PKR R532W it was 101 to 500%; on PKR T384W, 1 to 100%; on PKR wt, 1 to 100%.
Consider `CC(c1cc(F)cc(F)c1)N1CCN(C(=O)c2ccc(NS(=O)(=O)c3cccc4cccnc34)cc2)[C@@H](C)C1` (some centres unmarked), for which the activation at 1 µM on PKR R510Q, on PKR R532W, at PKR T384W and on PKR wt was 1 to 100% each time.
Regarding `CC1CN(Cc2cc(F)cc(F)c2F)CC(C)N1C(=O)c1ccc(NS(=O)(=O)c2cccc3cccnc23)cc1` (centres unmarked), the activation at 1 µM on PKR R510Q, on PKR R532W, on PKR T384W and at PKR wt was 101 to 500% each time.

For the origin of these results see patent US9404081B2, “Pyruvate kinase activators for use in therapy” (AGIOS PHARMACEUTICALS, INC., priority 2011, dated 2016).
